Reference: US9060997B2, “Antifolate compounds for the treatment of melanoma” (UNIVERSIDAD DE MURCIA, priority 2007, dated 2015)

Key:
Type in all cases: cell-based, human
Caspase-3 mRNA = Caspase-3 mRNA expression (real-time PCR); details: SkMel-28, 50 μM, 7 days
Description: (§1) Histograms compare the estimated relative levels of the mRNA with respect to that of β-actin. Values represent the number of copies of mRNA per each 1×10^6 copies of β-actin.
(§2) cDNA samples (1 μL) were used for real-time PCR in a total volume of 20 μL using SYBR Green Reagent (Applied Biosystems) and specific primers on a 7500 Real Time PCR System of Applied Biosystems. The PCR amplification cycles included denaturation 95° C., 15 min; to activate HotStar Taq DNA polymerase and to minimize primer-dimer contribution), and amplification [over 40-50 cycles including denaturation (94° C.; 30 s), annealing (55° C.; 30 s), and extension (72° C.; 1 min)]. All PCR reactions were performed in triplicate and from at least two independent experiments. Non-RT control and negative control samples (without template) were processed in the same manner. The specificity of the amplification was verified by melting curve analysis for all samples, and occasionally by agarosa gel electrophoresis. Amplification of target gene sequences were compared against serial dilutions of know quantities of their purified cDNA fragments, and normalized to the abundance of the house-keeping gene β-actin.

SkMel-28 cells = test: Microscopy of melanosome melanin content; details: treated SkMel-28 versus untreated
Description: Confluent monolayers of SkMel-28 were harvested with a mixture of 0.05% trypsin, 0.53 mmol/L EDTA and washed once in 0.25 mol/L sucrose by centrifugation at 700×g for 5 min at 4° C. They were then homogenized on ice using 20 strokes of an ice-cold Dounce homogenizer and centrifuged at 700×g for 10 min at 4° C. The resultant postnuclear supernatant was centrifuged at 17,000×g for 15 min at 4° C. to yield a melanosome-enriched granular fraction (17). This fraction was resuspended in 0.5-2 ml of ice-cold 0.25 mol/L sucrose, 10 mmol/L HEPES, pH 7.0 and fixed for 1 h at room temperature in 2% glutaraldehyde, 2% paraformaldehyde in 0.1 mol/L sodium cacodylate buffer, pH 7.3. The fixative was then removed and the samples stored in PBS containing 4% sucrose at 4° C. Samples were subsequently dehydrated with graded alcohols and embedded in epoxy resin. This section were stained with uranyl acetate and lead citrate and examined with a Zeiss EM10 electron microscope.

[1] = tested on: MS, MAT1A, MAT2A, AHYC and DNMT1 mRNA; test: Methionine cycle and methylase gene expression in SkMel-28 (real-time PCR)
Description: as §1
as §2, with “Primers were designer using Primer Express version 2.0 software (Applied Biosystems, Foster City, Calif.) and synthesized by Invitrogen. The sequence of the primers are as follow: MS (forward: 5′-[…]-[…]-3′; […]; MAT1A (forward: 5′-[…]-[…]; […]; The primers designed to amplify FRα cDNA were: FR1 (forward: 5′-[…]-[…]-3′); […]; cDNA samples” for “cDNA samples”

[2] = tested on: Reduced folate carrier (RFC) mRNA; test: Real-time PCR of RFC expression in SkMel-28; details: 50 μM, after 24 h of treatment
Description: Data were obtained by real time PCR and compared with the relative expression of RFC in normal human skin (zero relative gene expression). Zero time represents the level of RFC in untreated SkMel-28 cells.
(§3) PolyA+ mRNA from human adult skin was purchased from Invitrogen. SkMel-28 and HEM polyA+ mRNA was extracted from 5×10^6 cells using the Illustra Quick Prep Micro mRNA purification kit (GE Healthcare). mRNA (200 ng) was used to synthesize cDNA using SuperScript First-Strand Synthesis System (Invitrogen). PCR amplification of 2 μL of the cDNA strand generated was carried out in a total volume of 50 μL using an Eppendorf Mastercycler Thermal Cycler. Samples were amplified by 40 cycles at 95° C. (1 min), 62° C. (1 min) and 72° C. (1 min). The amplified PCR products were subjected to electrophoresis in 3% agarose gel and stained with ethidium bromide.
cDNA samples (1 μL) were used for real-time PCR in a total volume of 20 μL using SYBR Green Reagent (Applied Biosystems) and specific primers on a 7500 Real Time PCR System of Applied Biosystems. […] Amplification of target gene sequences were compared against serial dilutions of know quantities of their purified cDNA fragments, and normalized to the abundance of the house-keeping gene β-actin.

FRα mRNA = test: FRα expression in SkMel-28 (real-time PCR, RT-PCR); details: SkMel-28, 50 μM
Description: as §3
Primers were designer using Primer Express version 2.0 software (Applied Biosystems, Foster City, Calif.) and synthesized by Invitrogen. […] Amplification of target gene sequences were compared against serial dilutions of know quantities of their purified cDNA fragments, and normalized to the abundance of the house-keeping gene β-actin.

Caco-2 cells = test: MTT cell proliferation assay, Caco-2; details: Homo sapiens, 144 h; Caco-2, 6 days of treatment
Description: Four human cancer cells lines (SkMel-28, MCF7, H1264 and Caco-2) were obtained from the American Type Tissue Culture Collection (ATCC) and were maintained in appropriate culture mediums supplemented with 10% fetal calf serum (FCS) and antibiotics, under standard tissue culture conditions (e.g. modified Eagle's medium (MEM) containing 1 mM sodium pyruvate and 10% fetal bovine serum (FES) under 5% CO2/95% air atmosphere.). Cell injury was evaluated by a colorimetric assay for mitochondrial function using the 3-(4,5-dimethylthiazolyl-2)-2,5-diphenyltetrazolium bromide (MTT) cell proliferation assay. For this assay cells were plated in a 96-well plate at a density of 1000 cells/well and grown until they reached 50-60% confluence. Human epidermal melanocytes (HeM) were supplied by Gentaur and were cultured in HAM-F10 medium supplemented with 10% FCS, antibiotics and the human melanocyte growth supplement (Gentaur).

[3] = SkMel-28, 50 μM, five days, versus untreated SkMel-28

COc1cc(C(=O)O[C@@H]2Cc3c(O)cc(O)cc3O[C@@H]2c2ccc(O)c(O)c2)cc(OC)c1OC [TMECG, 3-O-(3,4,5-trimethoxybenzoyl)-(−)-epicatechin]
Caspase-3 mRNA, higher than in HeM or untreated SkMel-28 (Caspase-3 mRNA): around 30 times | melanosome melanin content (SkMel-28 cells): much less melanin content | level of MAT1A mRNA [1, 3]: essentially the some | level of MAT2A mRNA [1, 3]: slightly but significant increase | DNMT1 mRNA ([1]; SkMel-28, treated cells): recovered normal levels | reduction in RFC expression [2]: more than 80% | mature FRα mRNA (RT-PCR) (FRα mRNA; 3 days): partially restored the levels of mature FRα mRNA | FRα expression (exon 5 region, real-time PCR) (FRα mRNA; 5 days of treatment): no apparent effect on its expression | IC50 (Caco-2 cells): 33 µM
